Literature values in US20130079342A1, “HETEROCYCLIC COMPOUNDS AND THEIR USES” (priority 2011, published 2013).

Columns and labels:
[1] = tested on: systemic lupus erythematosis model; details: in vivo
[2] = tested on: rheumatoid arthritis model; details: in vivo
p110δ = biological target: T1, p110δ (Homo sapiens, UniProt O00329)
T1 sequence (O00329 1-1044): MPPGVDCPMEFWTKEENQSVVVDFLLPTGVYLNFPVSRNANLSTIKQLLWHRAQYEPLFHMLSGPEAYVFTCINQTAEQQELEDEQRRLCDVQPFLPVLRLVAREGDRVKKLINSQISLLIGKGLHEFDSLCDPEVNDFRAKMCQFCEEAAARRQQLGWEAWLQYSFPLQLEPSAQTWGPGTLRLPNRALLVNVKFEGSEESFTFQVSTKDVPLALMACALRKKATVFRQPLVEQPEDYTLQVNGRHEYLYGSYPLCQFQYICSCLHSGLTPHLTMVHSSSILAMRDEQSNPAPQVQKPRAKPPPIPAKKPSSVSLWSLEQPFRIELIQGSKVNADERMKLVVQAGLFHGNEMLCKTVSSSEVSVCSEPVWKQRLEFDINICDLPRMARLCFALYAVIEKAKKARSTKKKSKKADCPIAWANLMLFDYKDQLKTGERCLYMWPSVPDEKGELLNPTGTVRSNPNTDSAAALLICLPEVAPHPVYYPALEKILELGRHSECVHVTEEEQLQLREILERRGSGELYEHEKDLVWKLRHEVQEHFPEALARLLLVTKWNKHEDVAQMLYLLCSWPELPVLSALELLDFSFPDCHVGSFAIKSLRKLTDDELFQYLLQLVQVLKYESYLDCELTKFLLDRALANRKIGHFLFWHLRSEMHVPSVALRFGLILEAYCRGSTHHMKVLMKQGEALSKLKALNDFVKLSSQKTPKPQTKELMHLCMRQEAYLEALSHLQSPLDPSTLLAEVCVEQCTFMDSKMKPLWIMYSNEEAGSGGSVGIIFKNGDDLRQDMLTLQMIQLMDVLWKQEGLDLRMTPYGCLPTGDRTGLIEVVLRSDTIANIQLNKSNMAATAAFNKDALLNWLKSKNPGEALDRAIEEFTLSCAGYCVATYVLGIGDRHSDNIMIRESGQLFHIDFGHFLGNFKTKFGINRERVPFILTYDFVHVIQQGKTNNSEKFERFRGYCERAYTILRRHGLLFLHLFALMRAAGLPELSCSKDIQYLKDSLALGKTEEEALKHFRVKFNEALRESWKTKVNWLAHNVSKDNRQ

[3] = tested on: ovalbumin-induced airway inflammation

SMILES	onset of disease in a model of systemic lupus erythematosis [1]	efficacy in a mouse model of rheumatoid arthritis [2]	inhibition of p110δ (p110δ)	activity against any protein kinases tested (protein kinases)	inflammation and disease in a murine model of asthma [3]
O=C1NC(=O)/C(=C\c2ccc3nccnc3c2)S1 [AS 605240]	delay onset of disease	efficacious			
Cc1ccccc1-n1c(Cn2cnc3c(N)ncnc32)nc2cccc(C)c2c1=O [IC87114]			high nanomolar range (triple digit)	no activity	significantly ameliorate inflammation and disease
